Laboratory results reported in US12312627B2, “Microorganisms and methods for production of 4-hydroxybutyrate, 1,4-butanediol and related compounds” (priority 2013, dated 2025).

T1: endogenous alcohol dehydrogenase backflux activity (Escherichia coli, UniProt P27250)
T1 sequence (P27250 1-339): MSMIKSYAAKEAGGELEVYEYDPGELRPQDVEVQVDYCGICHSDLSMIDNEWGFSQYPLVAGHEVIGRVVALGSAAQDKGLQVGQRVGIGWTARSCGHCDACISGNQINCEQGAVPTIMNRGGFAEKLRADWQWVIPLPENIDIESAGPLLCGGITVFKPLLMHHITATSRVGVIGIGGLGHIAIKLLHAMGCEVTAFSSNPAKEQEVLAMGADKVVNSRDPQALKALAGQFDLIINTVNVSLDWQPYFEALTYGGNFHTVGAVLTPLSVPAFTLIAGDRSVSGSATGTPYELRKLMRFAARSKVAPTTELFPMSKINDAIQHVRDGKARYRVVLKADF


Columns and labels:
cytochrome bd oxidase = conditions: cited from earlier work
cytochrome bo oxidase = cytochrome bo oxidase (Escherichia coli, UniProt P0ABI8); conditions: read-out: Km for O2; cited from earlier work
[1] = test system: aminotransferase from Leishmania mexicana; conditions: enzyme expressed in E. coli; cited from earlier work
[2] = target: T1, endogenous alcohol dehydrogenase backflux activity; conditions: purified streptavidin-tagged protein, in the presence of NADP+
Description: The sample was purified while following the backflux activity.
The yjgB gene was cloned with a streptavidin tag, expressed and purified in order to characterize its properties.

Sequence of cytochrome bo oxidase (P0ABI8 whole entry): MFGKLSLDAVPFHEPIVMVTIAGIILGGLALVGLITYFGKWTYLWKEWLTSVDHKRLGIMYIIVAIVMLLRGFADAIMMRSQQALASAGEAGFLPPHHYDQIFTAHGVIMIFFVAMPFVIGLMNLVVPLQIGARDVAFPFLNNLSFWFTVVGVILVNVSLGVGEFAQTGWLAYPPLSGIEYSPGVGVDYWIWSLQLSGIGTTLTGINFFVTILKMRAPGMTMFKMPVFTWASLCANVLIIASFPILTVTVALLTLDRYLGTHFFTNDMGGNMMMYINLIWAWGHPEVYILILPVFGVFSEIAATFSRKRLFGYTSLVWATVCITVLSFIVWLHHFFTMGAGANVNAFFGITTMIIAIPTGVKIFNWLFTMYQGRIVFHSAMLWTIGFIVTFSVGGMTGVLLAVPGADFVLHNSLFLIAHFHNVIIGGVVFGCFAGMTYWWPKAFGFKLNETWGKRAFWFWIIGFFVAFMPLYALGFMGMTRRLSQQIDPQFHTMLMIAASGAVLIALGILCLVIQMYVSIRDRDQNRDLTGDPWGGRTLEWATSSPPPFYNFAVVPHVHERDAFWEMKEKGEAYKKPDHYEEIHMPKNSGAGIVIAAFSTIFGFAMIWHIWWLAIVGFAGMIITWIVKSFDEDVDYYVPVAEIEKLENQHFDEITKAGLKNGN
Sequence of cytochrome bo oxidase (P0ABJ1 25-315 partner): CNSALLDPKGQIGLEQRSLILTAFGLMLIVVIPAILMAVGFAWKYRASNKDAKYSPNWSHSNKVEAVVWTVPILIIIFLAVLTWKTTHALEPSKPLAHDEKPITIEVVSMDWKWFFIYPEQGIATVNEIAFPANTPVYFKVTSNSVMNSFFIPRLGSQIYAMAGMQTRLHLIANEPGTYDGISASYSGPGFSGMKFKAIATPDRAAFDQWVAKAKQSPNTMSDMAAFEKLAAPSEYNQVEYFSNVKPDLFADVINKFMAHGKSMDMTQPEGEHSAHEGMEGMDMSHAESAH
Sequence of cytochrome bo oxidase (P0ABJ3 whole entry partner): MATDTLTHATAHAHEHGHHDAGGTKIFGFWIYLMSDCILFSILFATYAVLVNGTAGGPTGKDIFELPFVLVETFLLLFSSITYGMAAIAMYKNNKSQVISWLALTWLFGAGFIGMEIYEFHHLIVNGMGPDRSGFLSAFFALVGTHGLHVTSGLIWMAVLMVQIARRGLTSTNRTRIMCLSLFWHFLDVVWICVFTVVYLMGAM
Sequence of cytochrome bo oxidase (P0ABJ6 whole entry partner): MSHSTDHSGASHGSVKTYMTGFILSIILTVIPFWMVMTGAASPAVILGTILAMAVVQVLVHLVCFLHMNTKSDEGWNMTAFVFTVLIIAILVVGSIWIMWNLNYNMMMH

Molecule | activity (considered 100% on tyrosine) [1] [%] | further results
O=O [Sample O2] | – | Km (cytochrome bd oxidase; read-out: Km for O2): 0.01 µM; Km (cytochrome bo oxidase): ~1 µM
CC(C)C[C@H](N)C(=O)O [leucine] | 25 | –
CSCC[C@H](N)C(=O)O [methionine] | 25 | –
N[C@@H](Cc1ccccc1)C(=O)O [phenylalanine] | 90 | –
N[C@@H](Cc1c[nH]c2ccccc12)C(=O)O [tryptophan] | 85 | –
N[C@@H](Cc1ccc(O)cc1)C(=O)O [tyrosine] | 100 | –
Cytochrome bd-II | – | In vivo sp act (mol O2/mol cytochrome bd/s) (cytochrome bd oxidase; from Bekker et al. 2009): 70 ± 12 mol O2/mol cytochrome bd/s; Vmax (mol O/mol cytochrome bd/s) (cytochrome bd oxidase; from Bekker et al. 2009): 818 ± 75 mol O/mol cytochrome bd/s
yjgB: E. coli alcohol dehydrogenase yjgB (GenBank NP_418690.4) identified as carrying backflux activity (protein, UniProt P27250 1-339, looked up) Aldehyde reductase Ahr: MSMIKSYAAKEAGGELEVYEYDPGELRPQDVEVQVDYCGICHSDLSMIDNEWGFSQYPLVAGHEVIGRVVALGSAAQDKGLQVGQRVGIGWTARSCGHCDACISGNQINCEQGAVPTIMNRGGFAEKLRADWQWVIPLPENIDIESAGPLLCGGITVFKPLLMHHITATSRVGVIGIGGLGHIAIKLLHAMGCEVTAFSSNPAKEQEVLAMGADKVVNSRDPQALKALAGQFDLIINTVNVSLDWQPYFEALTYGGNFHTVGAVLTPLSVPAFTLIAGDRSVSGSATGTPYELRKLMRFAARSKVAPTTELFPMSKINDAIQHVRDGKARYRVVLKADF | – | activity with BDO as a substrate [2]: robust activity
